Test results reported in patent publication US9232796B2, “Herbicidal compositions comprising 4-amino-3-chloro-5-fluoro-6-(4-chloro-2-fluoro-3-methoxyphenyl) pyridine-2-carboxylic acid or a derivative thereof and acetyl-CoA carboxylase (ACCase) inhibitors” (DOW AGROSCIENCES LLC, priority 2012, dated 2016).

Assays:
[1] = tested on: CYPRO; assay: Example VI in-water applied ternary mixtures, greenhouse, transplanted paddy rice weeds; assay type: in vivo, Cyperus rotundus L.
Experimental: (§1) Weed seeds or nutlets of the desired test plant species were planted in puddled soil (mud) prepared by mixing a shredded, non-sterilized mineral soil (50.5 percent silt, 25.5 percent clay, and 24 percent sand, with a pH of about 7.6 and an organic matter content of about 2.9 percent) and water at a 1:1 volumetric ratio. The prepared mud was dispensed in 365 mL aliquots into 16-ounce (oz.) non-perforated plastic pots with a surface area of 86.59 square centimeters (cm^2) leaving a headspace of 3 centimeters (cm) in each pot. Mud was allowed to dry overnight prior to planting or transplanting. Rice seeds were planted in Sun Gro MetroMix® 306 planting mixture, which typically has a pH of 6.0 to 6.8 and an organic matter content of about 30 percent, in plastic plug trays. Seedlings at the second or third leaf stage of growth were transplanted into 860 mL of mud contained in 32-oz. non-perforated plastic pots with a surface area of 86.59 cm^2 4 days prior to herbicide application. The paddy was created by filling the headspace of the pots with 2.5 to 3 cm of water. When required to ensure good germination and healthy plants, a fungicide treatment and/or other chemical or physical treatment was applied. The plants were grown for 4-22 days in a greenhouse with an approximate 14 hr. photoperiod which was maintained at about 29° C. during the day and 26° C. during the night. Nutrients were added as Osmocote® (19:6:12, N:P:K+minor nutrients) at 2 g per 16-oz. pot and 4 g per 32-oz. pot. Water was added on a regular basis to maintain the paddy flood, and supplemental lighting was provided with overhead metal halide 1000-Watt lamps as necessary. The plants were employed for testing when they reached the first through fourth true leaf stage.
(§2) Treatments consisted of the benzyl ester of 4-amino-3-chloro-5-fluoro-6-(4-chloro-2-fluoro-3-methoxy-phenyl)pyridine-2-carboxylic acid (Compound A), formulated as an SC (suspension concentrate), an ACCase inhibitor herbicide, and a third herbicidal component, each applied alone and in ternary combination. Forms of compound A were applied on an acid equivalent basis.
The ACCase inhibitor component was applied on an active ingredient basis and included cyhalofop-R-butyl formulated as Clincher® G and metamifop formulated as Metamifop EC. Other herbicidal components were applied on an active ingredient or acid equivalent basis depending on the compound and included penoxsulam formulated as Grasp® SC, bentazon sodium formulated as Basagran®, triclopyr […] (TEA) salt formulated as Grandstand® R, benzobicyclon formulated as Benzobicyclon, benfuresate formulated as Full Slot® WG, pyraclonil formulated as Pyraclon® Flowable, mefenacet (technical grade material), and pretilachlor (technical grade material).
(§3) Treatment requirements for each compound or herbicidal component were calculated based upon the rates being tested, the concentration of active ingredient or acid equivalent in the formulation, an application volume of 1 mL per component per pot, and an application area of 86.59 cm^2 per pot.
For formulated compounds, a measured amount was placed in an individual 100 or 200 mL glass vial and was dissolved in a volume of 1.25% (v/v) Agri-Dex® crop oil concentrate to obtain application solutions.
For technical grade compounds, a weighed amount was placed in an individual 100 to 200 mL glass vial and was dissolved in a volume of acetone to obtain concentrated stock solutions.
Applications were made by injecting with a pipetter appropriate amounts of the application solutions, into the aqueous layer of the paddy. Control plants were treated in the same manner with the solvent blank. Applications were made so that all treated plant material received the same concentrations of acetone and crop oil concentrate.
The treated plants and control plants were placed in a greenhouse as described above and water was added as needed to maintain a paddy flood. […]

[2] = tested on: SCPJU; assay: as above; assay type: in vivo, Schoenoplectus juncoides (Roxb.) Palla
Experimental: as §1, §2
The ACCase inhibitor component was applied on an active ingredient basis and included cyhalofop-R-butyl formulated as Clincher® G and metamifop formulated as Metamifop EC. […]
as §3
For formulated compounds, a measured amount was placed in an individual 100 or 200 mL glass vial and was dissolved in a volume of 1.25% (v/v) Agri-Dex® crop oil concentrate to obtain application solutions. […]

[3] = tested on: SCPMU; assay: Example V post-emergence field trials in direct-seeded rice; assay type: in vivo, Schoenoplectus mucronatus; details: foliar, field trial Italy
Experimental: Multiple field trials were conducted under commercial grower field conditions in Tolima, Colombia; Thessaloniki, Greece; Bianze and Copiano, Italy; and Humphrey, Ark., USA. Trials sites were located in commercially grown fields of direct-seeded rice (Oryza sativa) using standard herbicide small plot research methodology. Plots varied from 2 to 3 meter (m)×5 to 8 m (width×length) with 4 replicates per treatment. The rice crop was grown using normal cultural practices for fertilization, seeding, watering, flooding and maintenance to ensure good growth of the crop and the weeds.
All treatments in the field trials were applied using a backpack compressed air/gas sprayer with flat fan nozzles (80° or 110°) calibrated to apply 187 to 300 L/ha spray volume at approximately 200-400 kPa nozzle pressure. Commercially available products of cyhalofop-butyl (Clincher 180EC, Clincher 200EC, and Clincher SF (285 gr ai/L EC)) were mixed in water at appropriate formulated product rates to achieve the desired rates based on a unit area of application (hectare) to achieve the desired rates as shown. Treatments were rate at 19 to 58 days after application (DAA) as compared to the untreated control plants. Visual weed control was scored on a scale of 0 to 100 percent where 0 corresponds to no injury and 100 corresponds to complete kill. […]

SMILES	Visual Weed Control (%) - 21 DAA CYPRO Obs ([1]; 2.19 gae/ha) [%]	Visual Weed Control (%) - 24 DAA CYPRO Obs ([1]; 4 gae/ha) [%]	Visual Weed Control (%) - 24 DAA CYPRO Obs ([1]; 8 gae/ha) [%]	Visual Weed Control (%) - 24 DAA CYPRO Obs ([1]; 16 gae/ha) [%]	Visual Weed Control (%) - 21 DAA CYPRO Obs ([1]; Table 69, 4 gae/ha, 21 DAA) [%]	Visual Weed Control (%) - 21 DAA CYPRO Obs ([1]; Table 69, 8 gae/ha, 21 DAA) [%]	Visual Weed Control (%) - 21 DAA CYPRO Obs ([1]; Table 70, 4 gae/ha, 21 DAA) [%]	Visual Weed Control (%) - 21 DAA CYPRO Obs ([1]; Table 70, 8 gae/ha, 21 DAA) [%]	Visual Weed Control (%) - 21 DAA SCPJU Obs ([2]; 2.19 gae/ha) [%]	Visual Weed Control (%) - 55-58 DAA SCPMU Obs ([3]; 24 gae/ha) [%]	Visual Weed Control (%) - 21 DAA CYPRO Obs ([1]; 22.5 gai/ha) [%]	Visual Weed Control (%) - 21 DAA CYPRO Obs ([1]; 45 gai/ha) [%]	Visual Weed Control (%) - 24 DAA CYPRO Obs ([1]; 90 gai/ha) [%]	Visual Weed Control (%) - 24 DAA CYPRO Obs ([1]; 180 gai/ha) [%]	Visual Weed Control (%) - 21 DAA CYPRO Obs ([1]; Table 69, 90 gai/ha, 21 DAA) [%]	Visual Weed Control (%) - 21 DAA CYPRO Obs ([1]; Table 69, 180 gai/ha, 21 DAA) [%]	Visual Weed Control (%) - 21 DAA CYPRO Obs ([1]; Table 70, 180 gai/ha, 21 DAA) [%]	Visual Weed Control (%) - 21 DAA SCPJU Obs ([2]; 22.5 gai/ha) [%]	Visual Weed Control (%) - 21 DAA SCPJU Obs ([2]; 45 gai/ha) [%]	Visual Weed Control (%) - 55-58 DAA SCPMU Obs ([3]; 300 gai/ha) [%]
COc1c(Cl)ccc(-c2nc(C(=O)OCc3ccccc3)c(Cl)c(N)c2F)c1F [Compound A Benzyl Ester, benzyl ester of 4-amino-3-chloro-5-fluoro-6-(4-chloro-2-fluoro-3-methoxy-phenyl)pyridine-2-carboxylic acid]	0	40	60	85	3	33	3	33	77	27										
CCCCOC(=O)[C@@H](C)Oc1ccc(Oc2ccc(C#N)cc2F)cc1 [Cyhalofop-butyl, butyl(2R)-2-[4-(4-cyano-2-fluorophenoxy)phenoxy]propanoate, reference compound]											0	0	0	0	0	0	0	0	0	6
